Results published in US20250296953A1, “3,4-THIAZOLO-STEROIDS AND METHODS OF MAKING AND USING THE SAME” (Arkansas State University - Jonesboro, priority 2018, published 2025).

Experiments:
[1] = system: 60 different human tumor cell lines; assay: NCI Development Therapeutics Program 60 cell line screen, one dose; format: cell-based
SF-539 = assay: NCI 60 one dose screen; format: cell-based, human; settings: one dose; CNS Cancer; SF-539
SR = assay: NCI 60 five dose screen; settings: SR (Leukemia), five dose

Q: How did the “Growth Percent” value ([1]; Breast Cancer, BT-549) turn out when `C[C@]12CCc3nc(Nc4ccc(O)cc4)sc3C1=CC[C@@H]1[C@@H]2CC[C@]2(C)C(=O)CC[C@@H]12` [IIa.35] was run?
A: 45.59%

Q: And the “Growth Percent” value ([1]; Breast Cancer, HS 578T)?
A: 53.60%

Q: What about the “Growth Percent” value ([1]; Breast Cancer, MCF7) of the same compound?
A: 3.11%

Q: And the “Growth Percent” value ([1]; Breast Cancer, MDA-MB-231/ATCC)?
A: 35.27%

Q: And the “Growth Percent” value ([1]; Breast Cancer, MDA-MB-468)?
A: −36.91%

Q: What about the “Growth Percent” value ([1]; Breast Cancer, T-47D) of the same compound?
A: 10.57%

Q: What about the “Growth Percent” value ([1]; CNS Cancer, SF-268) of the same compound?
A: 58.35%

Q: And the “Growth Percent” value ([1]; CNS Cancer, SNB-19)?
A: 64.60%

Q: And the “Growth Percent” value ([1]; CNS Cancer, SNB-75)?
A: 41.74%

Q: What about the “Growth Percent” value ([1]; CNS Cancer, U251) of the same compound?
A: 19.48%

Q: What about the “Growth Percent” value ([1]; Colon Cancer, COLO 205) of the same compound?
A: 38.45%

Q: What about the “Growth Percent” value ([1]; Colon Cancer, HCC-2998) of the same compound?
A: 97.70%

Q: And the “Growth Percent” value ([1]; Colon Cancer, HCT-116)?
A: −72.37%

Q: And the “Growth Percent” value ([1]; Colon Cancer, HT29)?
A: 10.26%

Q: What about the “Growth Percent” value ([1]; Colon Cancer, KM12) of the same compound?
A: 46.68%

Q: What about the “Growth Percent” value ([1]; Colon Cancer, SW-620) of the same compound?
A: −32.15%

Q: And the “Growth Percent” value ([1]; Leukemia, CCRF-CEM)?
A: 8.33%

Q: What about the “Growth Percent” value ([1]; Leukemia, HL-60(TB)) of the same compound?
A: 8.98%

Q: And the “Growth Percent” value ([1]; Leukemia, K-562)?
A: 10.77%

Q: And the “Growth Percent” value ([1]; Leukemia, MOLT-4)?
A: 10.99%

Q: And the “Growth Percent” value ([1]; Leukemia, RPMI-8226)?
A: −24.54%

Q: And the “Growth Percent” value ([1]; Leukemia, SR)?
A: 9.60%

Q: What about the “Growth Percent” value ([1]; Melanoma, LOX IMVI) of the same compound?
A: −8.01%

Q: And the “Growth Percent” value ([1]; Melanoma, M14)?
A: 58.13%

Q: What about the “Growth Percent” value ([1]; Melanoma, MALME-3M) of the same compound?
A: 29.71%

Q: What about the “Growth Percent” value ([1]; Melanoma, MDA-MB-435) of the same compound?
A: 35.34%

Q: And the “Growth Percent” value ([1]; Melanoma, SK-MEL-2)?
A: 72.46%

Q: What about the “Growth Percent” value ([1]; Melanoma, SK-MEL-5) of the same compound?
A: 62.03%

Q: And the “Growth Percent” value ([1]; Melanoma, SK-MEL-28)?
A: 77.86%

Q: And the “Growth Percent” value ([1]; Melanoma, UACC-62)?
A: 55.82%

Q: What about the “Growth Percent” value ([1]; Melanoma, UACC-257) of the same compound?
A: 73.38%

Q: What about the “Growth Percent” value ([1]; Non-small Cell Lung Cancer, A549/ATCC) of the same compound?
A: 79.28%

Q: And the “Growth Percent” value ([1]; Non-small Cell Lung Cancer, EKVX)?
A: 98.04%

Q: And the “Growth Percent” value ([1]; Non-small Cell Lung Cancer, HOP-62)?
A: 92.69%

Q: And the “Growth Percent” value ([1]; Non-small Cell Lung Cancer, HOP-92)?
A: 125.71%

Q: And the “Growth Percent” value ([1]; Non-small Cell Lung Cancer, NCI-H23)?
A: 70.16%

Q: And the “Growth Percent” value ([1]; Non-small Cell Lung Cancer, NCI-H226)?
A: 102.70%

Q: And the “Growth Percent” value ([1]; Non-small Cell Lung Cancer, NCI-H322M)?
A: 93.36%

Q: What about the “Growth Percent” value ([1]; Non-small Cell Lung Cancer, NCI-H460) of the same compound?
A: 65.57%

Q: What about the “Growth Percent” value ([1]; Ovarian Cancer, IGROV1) of the same compound?
A: 13.07%

Q: What about the “Growth Percent” value ([1]; Ovarian Cancer, NCI/ADR-RES) of the same compound?
A: 68.59%

Q: And the “Growth Percent” value ([1]; Ovarian Cancer, OVCAR-3)?
A: −31.67%

Q: What about the “Growth Percent” value ([1]; Ovarian Cancer, OVCAR-4) of the same compound?
A: 57.12%

Q: And the “Growth Percent” value ([1]; Ovarian Cancer, OVCAR-5)?
A: 116.69%

Q: What about the “Growth Percent” value ([1]; Ovarian Cancer, OVCAR-8) of the same compound?
A: 35.92%

Q: And the “Growth Percent” value ([1]; Ovarian Cancer, SK-OV-3)?
A: 107.77%

Q: And the “Growth Percent” value ([1]; Prostate Cancer, DU-145)?
A: 10.45%

Q: What about the “Growth Percent” value ([1]; Prostate Cancer, PC-3) of the same compound?
A: 39.10%

Q: What about the “Growth Percent” value ([1]; Renal Cancer, 786-0) of the same compound?
A: −3.03%

Q: And the “Growth Percent” value ([1]; Renal Cancer, A498)?
A: 100.87%

Q: And the “Growth Percent” value ([1]; Renal Cancer, ACHN)?
A: −17.29%

Q: What about the “Growth Percent” value ([1]; Renal Cancer, CAKI-1) of the same compound?
A: 47.13%

Q: What about the “Growth Percent” value ([1]; Renal Cancer, RXF 393) of the same compound?
A: −16.18%

Q: What about the “Growth Percent” value ([1]; Renal Cancer, SN12C) of the same compound?
A: 30.38%

Q: And the “Growth Percent” value ([1]; Renal Cancer, TK-10)?
A: 22.82%

Q: What about the “Growth Percent” value ([1]; Renal Cancer, UO-31) of the same compound?
A: −48.83%

Q: And the “Growth Percent” value (SF-539)?
A: −3.84%

Q: And the GI50 (SR)?
A: 2720 nM

Q: What about the TGI (SR) of the same compound?
A: >1.00E−4

Q: What about the CC50 (SR; read-out: LC50) of the same compound?
A: > 100 µM
